pEC50, pKi: −log10 of the molar value.

For experiment [1], the target named is T1, EP2 (Homo sapiens, UniProt P43116). Description: EP2 flipr. The experiment is classed as cell-based. From the text: (§1) U.S. patent application Ser. No. 11/553,143, filed on Oct. 26, 2006, incorporated by reference herein, describes the methods used to obtain the in vitro data in the tables below.
Experiment [2] deals with T1, EP2. The experiment in a line: EP2 cAMP. The experiment is classed as cell-based.
Source text: as §1

The target of experiment [3] is T1, EP2. The experiment in a line: EP2 binding (Ki).
Source text: as §1

Experiment [4] has as its target T2, EP4 (Homo sapiens, UniProt P35408). The experiment in a line: EP4 binding (KI).
Source text: as §1

Experiment [5] concerns the target T2, EP4. The experiment in a line: EP4 flipr. Format: cell-based.
Source text: as §1

T1 sequence (P43116 whole entry): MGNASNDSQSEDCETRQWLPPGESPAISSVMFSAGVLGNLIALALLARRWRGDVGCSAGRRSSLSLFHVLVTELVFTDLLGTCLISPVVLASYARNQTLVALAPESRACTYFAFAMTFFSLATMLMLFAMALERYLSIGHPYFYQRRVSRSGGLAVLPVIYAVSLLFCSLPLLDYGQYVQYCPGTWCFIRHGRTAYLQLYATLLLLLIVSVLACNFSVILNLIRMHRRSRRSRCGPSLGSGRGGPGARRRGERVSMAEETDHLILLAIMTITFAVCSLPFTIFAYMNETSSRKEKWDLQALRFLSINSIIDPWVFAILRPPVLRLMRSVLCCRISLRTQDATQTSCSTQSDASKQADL
T2 sequence (P35408 whole entry): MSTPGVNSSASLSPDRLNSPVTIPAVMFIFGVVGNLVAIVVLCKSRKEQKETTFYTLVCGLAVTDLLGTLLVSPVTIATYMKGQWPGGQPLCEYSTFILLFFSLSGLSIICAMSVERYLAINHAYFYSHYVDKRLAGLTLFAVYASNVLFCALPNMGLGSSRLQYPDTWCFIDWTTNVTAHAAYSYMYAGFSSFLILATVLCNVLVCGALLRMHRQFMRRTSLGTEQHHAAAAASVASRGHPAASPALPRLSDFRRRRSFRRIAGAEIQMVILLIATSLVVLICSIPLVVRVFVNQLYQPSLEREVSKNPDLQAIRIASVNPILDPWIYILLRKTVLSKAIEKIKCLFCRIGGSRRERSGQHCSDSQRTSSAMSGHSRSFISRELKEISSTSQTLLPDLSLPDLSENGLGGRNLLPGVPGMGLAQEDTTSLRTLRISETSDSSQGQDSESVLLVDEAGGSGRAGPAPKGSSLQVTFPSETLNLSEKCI

With `CCCCCC(O)c1ccc(N2CC[C@@H](Cl)[C@@H]2COCc2ccc(C(=O)O)s2)cc1` (stereo partly drawn) [5-((((2S,3R)-3-chloro-1-(4-(1-hydroxyhexyl)phenyl)pyrrolidin-2-yl)methoxy)methyl)thiophene-2-carboxylic acid], the pEC50 (usually the EC50 on a negative log10 scale, so that one unit is a factor of ten) is 5.66 on EP2 [1] and 6.47 at EP2 [2]. Also, the figures for the pKi on EP2 [3] and on EP4 [4] were 5.73 and less than 5.00, respectively.

For the compound `CCCC/C=C/c1ccc(N2CC[C@@H](Cl)[C@@H]2COCc2ccc(C(=O)O)s2)cc1` [5-((((2S,3R)-3-chloro-1-(4-((E)-hex-1-enyl)phenyl)pyrrolidin-2-yl)methoxy)methyl)thiophene-2-carboxylic acid], the figures for the pEC50 on EP2 [1], at EP2 [2] and on EP4 [5] were 5.07, 6.49 and less than 5.00, respectively. For the same compound, the pKi (usually the negative decadic logarithm of the Ki, by convention in mol/L) was 5.52 at EP2 [3] and 5.83 at EP4 [4].

In the case of `CCCCCC(=O)c1ccc(N2CC[C@@H](Cl)[C@@H]2COCc2ccc(C(=O)O)s2)cc1` [5-((((2S,3R)-3-chloro-1-(4-hexanoylphenyl)pyrrolidin-2-yl)methoxy)methyl)thiophene-2-carboxylic acid], the pEC50 at EP2 [1] was 5.42; on EP2 [2], 7.77; at EP4 [5] it was less than 5.00. For the same compound, the pKi was 7.07 at EP2 [3] and 5.99 at EP4 [4].

For the origin of these results see patent publication US7498447B2, “Therapeutic compounds” (Allergan, Inc., priority 2006, dated 2009).
